Consider 13 compounds from US20250114473A1, “COMPOUND FOR CONJUGATION, CONJUGATE AND PHARMACEUTICAL COMPOSITION COMPRISING THE SAME” (priority 2023, published 2025).

Numbered stars: 1 amine (or outer) side, 2 acyl side, 3 side chain; on linkers, the order of the positions; unused ones are H or OH. Square brackets hold non-standard residues; d marks the D form. Peptide text beside a SMILES is read from it. * marks the point of attachment. Dolaproine = CO[C@@H]([C@@H]1CCCN1)[C@@H](C)C(=O)O; Dil = CC[C@H](C)[C@H](NC)[C@@H](CC(=O)O)OC; PABC = O=C(OCc1ccc(N[*:1])cc1)[*:2]; X1 = C[C@@H](N*)[C@@H](O)c1ccccc1; Cit = NC(=O)NCCC[C@H](N)C(=O)O; NMeV = CN[C@H](C(=O)O)C(C)C

The subject of data set [1] is MCF-7 (HER2 1+). Put plainly: Anti-proliferation assay (CCK-8) of linker-drug combinations, drugs and cleaved products. Type of data set: cell-based. As to the method:
(§1) Additionally, a series of experiments were conducted, including anti-proliferation assays for linker-drug combinations (i.e. the compounds in the present disclosure), the drugs thereof, and the cleaved products thereof after cleavage by the Cathepsin B enzyme in cells. These assays were performed using HER2-expressing cell lines. MCF-7 and SK-BR-3 cell lines were seeded at a density of 1.5×10^3 to 1×10^4 cells/well in 90 μL of the corresponding culture medium, and cultured at 37° C. in a CO2 incubator (Forma/ThermoFisher (370) or BINDER (CB130)) with a range of dilutions (0-1000 nM) of the compounds in the present disclosure, the drugs thereof, and the cleaved products thereof. Cell density for each sample was recorded by measuring the absorbance of Cell Counting Kit-8 (CCK-8) at 450 nm. Data analysis was performed using GraphPad Prism 8.0.1, and the best-fit four-parameter dose-response curve was selected. Half Maximal Inhibitory Concentration (IC50) values were determined via nonlinear regression; consistency between batches was assessed using One-way ANOVA. The relevant experimental results are detailed in Table 4. […] Such reduced toxicity of the linker-drug combinations (i.e, the compounds in the present disclosure) offers significant advantages in moiety-drug conjugate applications, including better biocompatibility, enhanced therapeutic efficacy, and greater dosing flexibility.

In data set [2] the test system is SK-BR-3 (HER2 3+). The data set is described as above. It counts as cell-based. As to conditions: 0-1000 nM. As to the method: as §1
A short description of data set [3]: Plasma stability, released drug by LC-MS/MS. Type of data set: in vitro ADME. The conditions noted are these: for drug release trend: over a 13-day period; for free drug percentage: 13 days. An excerpt:
To further advance the research, a set of the compounds in the present disclosure, FL-F21N-L111-P204 and FL-F21N-L106-P204, each containing single-arm and dual-arm respectively, was selected for plasma stability testing in both humans and rats. These were then compared in detail with commercially available Deruxtecan (Dxd) and VC-PAB-MMAE to evaluate their stability and safety in blood.
These calculations were based on standard drugs (e.g., Eribulin, MMAE, Dxd) and they were accurately measured using liquid chromatography-tandem mass spectrometry (LC-MS/MS). […] This trend provides an in-depth understanding of the drug release dynamics.
These experimental results provide crucial data supporting the efficacy and safety of the compounds in the present disclosure.

Data set [4] can be described thus: Water solubility testing (dissolved with minimal DMSO, precipitated by addition of water). It counts as physicochemical. The conditions noted are these: precipitated by addition of water to DMSO solution. How it is done: Briefly, the moiety-compound conjugates was dissolved with minimal DMSO and precipitated by the addition of water. […] However, Entry 5 and Entry 4 are conjugates with two-arm, with no PEG linker or two PEG4 linker, respectively, which were precipitated in 19.5% and 30.8% Water/DMSO. Thus, the results of water solubility of the conjugates are consistent with the inventors' hypothesis.

For data set [5], the system named is MCF-7 (HER2 1+). Put plainly: Cell toxicity testing of moiety-drug conjugates (CCK-8). It counts as cell-based. How it is done:
(§2) The experiment involved optimizing seeding densities (1.5×10^3 to 1.5×10^4 cells/well) for each cell line (SK-BR-3, MCF-7, MDA-MB-231, MDA-MB-436) in 90 IL, of culture medium per well in a 96-well plate for 2-hour incubation. Next, 10 μL of a series of diluted ADC solutions (0-500 nM) were added to each well. The concentration of each ADC solution and measurements at four time points (24, 48, 72, and 96 hours) were conducted in triplicate. […] Data analysis was performed with GraphPad Prism 8.0.1, employing a four-parameter logistic curve-fit program.

The next data set has as its system MDA-MB-231 (HER2−). The data set is described as above. Type of data set: cell-based. As to conditions: 0-500 nM. How it is done:
as §2

The test system of another data set is MDA-MB-436 (HER2−). The description is as above. It counts as cell-based. As to conditions: 0-500 nM. How it is done:
as §2

For data set [6], the system named is SK-BR-3 (HER2 3+). Described as above. The conditions noted are these: 0-500 nM. Type of data set: cell-based. As to the method:
as §2

For `C=C1C[C@@H]2CC[C@@]34CC5O[C@H]6C(O3)[C@H]3O[C@H](CC[C@@H]3O[C@H]6[C@H]5O4)CC(=O)C[C@@H]3[C@@H](OC)[C@@H](C[C@H](O)CNC(=O)OCCOCCOCCOCCNC(=O)OCc4ccc(NC(=O)[C@H](CCCNC(N)=O)NC(=O)[C@@H](NC(=O)CCCCCN5C(=O)C=CC5=O)C(C)C)cc4)O[C@H]3CC3O[C@@H](CCC1O2)C[C@@H](C)C3=C` [FL-F21N-L111-P204, Mal-Val-Cit-PAB-PEG4-Eribulin], the IC50 turned out to be 45.5 nM in the data set on MCF-7 (HER2 1+) [1] (Homo sapiens, MCF7, 0-1000 nM) and 30.8 nM in the data set with SK-BR-3 (HER2 3+) [2] (Homo sapiens). Also, the drug release trend entry in data set [3] (human plasma) and in data set [3] (rat plasma) was “stable drug release trends” in each case. Further, the “Precipitation in % Water/DMSO” value in data set [4] came out at 24.5%.
`C=C1C[C@@H]2CC[C@@]34CC5O[C@H]6[C@@H](O3)[C@H]3O[C@H](CC[C@@H]3O[C@H]6C5O4)CC(=O)C[C@H]3C(C[C@H]4OC(CC[C@@H]1O2)C[C@@H](C)C4=C)O[C@H](C[C@H](O)CNC(=O)OCCOCCOCCOCCOCCOCCOCCOCCOCCOCCOCCOCCNC(=O)OCc1ccc(NC(=O)[C@H](CCCNC(N)=O)NC(=O)[C@@H](NC(=O)CCCCCN2C(=O)C=CC2=O)C(C)C)cc1)[C@@H]3OC` (stereo partly drawn) [FL-F21N-L162-P204, Mal-Val-Cit-PEG12-Eribulin]: the “Precipitation in % Water/DMSO” value in data set [4] came out at 31.5%.
Still for that read-out and setting: as for `C=C1C[C@@H]2CC[C@@]34CC5O[C@H]6[C@@H](O3)[C@H]3O[C@H](CC[C@@H]3O[C@H]6C5O4)CC(=O)C[C@H]3C(C[C@H]4OC(CC[C@@H]1O2)C[C@@H](C)C4=C)O[C@H](C[C@H](O)CNC(=O)OCCOCCOCCOCCOCCOCCOCCOCCOCCOCCOCCOCCOCCOCCOCCOCCOCCOCCOCCOCCOCCOCCOCCOCCNC(=O)OCc1ccc(NC(=O)[C@H](CCCNC(N)=O)NC(=O)[C@@H](NC(=O)CCCCCN2C(=O)C=CC2=O)C(C)C)cc1)[C@@H]3OC` (stereo partly drawn) [FL-F21N-L163-P204, Mal-Val-Cit-PEG24-Eribulin], the figure is 38.9%.
Turning to `C=C1C[C@@H]2CC[C@@]34C[C@H]5O[C@H]6[C@@H](O3)[C@H]3O[C@H](CC[C@@H]3O[C@H]6[C@H]5O4)CC(=O)C[C@@H]3[C@@H](OC)[C@@H](C[C@H](O)CN)O[C@H]3C[C@H]3O[C@@H](CC[C@@H]1O2)C[C@@H](C)C3=C` [P204, Eribulin, reference compound], the IC50 was determined as 0.337 nM with MCF-7 (HER2 1+) [1] (Homo sapiens, MCF7, 0-1000 nM); 0.244 nM in the data set on SK-BR-3 (HER2 3+) [2] (Homo sapiens); 0.337 nM in the data set with MCF-7 (HER2 1+) [5] (Homo sapiens, MCF7, 0-500 nM); 2.07 nM in the data set on MDA-MB-231 (HER2−) (Homo sapiens); 1.28 nM in the data set with MDA-MB-436 (HER2−) (Homo sapiens); 0.244 nM with SK-BR-3 (HER2 3+) [6] (Homo sapiens).
For `CC[C@H](C)[C@@H]([C@@H](CC(=O)N1CCC[C@H]1[C@H](OC)[C@@H](C)C(=O)N[C@H](C)[C@@H](O)c1ccccc1)OC)N(C)C(=O)[C@@H](NC(=O)[C@H](C(C)C)N(C)C(=O)OCc1ccc(NC(=O)[C@H](CCCNC(N)=O)NC(=O)[C@@H](N)C(C)C)cc1)C(C)C` [VC-PAB-MMAE, reference compound] (H-V[Cit][PABC][NMeV]V[Dil][Dolaproine]-X1), the free drug percentage in data set [3] (human plasma) is on record as 0.56%; in data set [3] (rat plasma), 5.03%.
For “Deruxtecan [L155-P209 (Deruxtecan), reference compound]”, the IC50 in the data set with MCF-7 (HER2 1+) [1] (0-1000 nM) turned out to be 512 nM; with SK-BR-3 (HER2 3+) [2] it was 432 nM. Further, the free drug percentage in data set [3] (human plasma) amounted to 5.19%; in data set [3] (rat plasma), 0.70%.
For Dxd [P209, reference compound], the IC50 worked out at 9.53 nM in the data set on MCF-7 (HER2 1+) [1] (0-1000 nM); 5.51 nM in the data set on SK-BR-3 (HER2 3+) [2]; 9.53 nM in the data set on MCF-7 (HER2 1+) [5] (0-500 nM); 135 nM in the data set with MDA-MB-231 (HER2−); 5.12 nM with MDA-MB-436 (HER2−); 5.51 nM in the data set on SK-BR-3 (HER2 3+) [6].
Regarding “Mal-Val-Cit-PAB-(Eribulin)2 [FL-F21N-L107-P204]”, the figures for the half-maximal inhibitory concentration (IC50) with MCF-7 (HER2 1+) [1] (0-1000 nM) and in the data set with SK-BR-3 (HER2 3+) [2] were 14.2 nM and 9.24 nM, respectively. Besides, in data set [4], the “Precipitation in % Water/DMSO” value came out at 19.5%.
Turning to “Mal-Val-Cit-PAB-(PEG4-Eribulin)2 [FL-F21N-L106-P204]”, the IC50 in the data set on MCF-7 (HER2 1+) [1] (0-1000 nM) was 26.3 nM; in the data set on SK-BR-3 (HER2 3+) [2], 13 nM. The free drug percentage in data set [3] (human plasma) is 2.74%; in data set [3] (rat plasma) it was 3.50%. Moreover, the drug release trend result in data set [3] (human plasma) and in data set [3] (rat plasma) was “stable drug release trends” in each case. Further, the “Precipitation in % Water/DMSO” value in data set [4] came out at 30.8%.
“Trastuzumab-Mal-Val-Cit-PAB-(Eribulin)2 [A701-L107-P204-D08]”: the results for the IC50 with MCF-7 (HER2 1+) [5] (0-500 nM) and in the data set on SK-BR-3 (HER2 3+) [6] were 0.0229 nM and 0.0172 nM, respectively.
Turning to “Trastuzumab-Mal-Val-Cit-PAB-(PEG4-Eribulin)2 [A701-L106-P204-D08]”, the IC50 with MCF-7 (HER2 1+) [5] (0-500 nM) was determined as 0.0229 nM; in the data set on MDA-MB-231 (HER2−), 75.2 nM; in the data set on MDA-MB-436 (HER2−) it was 14.6 nM; with SK-BR-3 (HER2 3+) [6], 0.0216 nM.
With “Trastuzumab-Mal-Val-Cit-PAB-PEG4-Eribulin [A701-L111-P204-D04]”, the IC50 in the data set on MCF-7 (HER2 1+) [5] (0-500 nM) is 3.83 nM; in the data set with MDA-MB-231 (HER2−) it was 148 nM; in the data set with MDA-MB-436 (HER2−), more than 250 nM; in the data set on SK-BR-3 (HER2 3+) [6], 0.012 nM.
As to “Trastuzumab-Mal-Val-Cit-PAB-PEG4-Eribulin [A701-L111-P204-D08]”, the 50% inhibitory concentration (IC50) is 0.045 nM with MCF-7 (HER2 1+) [5] (0-500 nM), more than 250 nM in the data set with MDA-MB-231 (HER2−), 33 nM with MDA-MB-436 (HER2−) and 0.012 nM in the data set with SK-BR-3 (HER2 3+) [6].

What is called IC50 is the concentration that gives 50% inhibition.
